Assay results from patent US20110263649A1, “CRYSTALLINE FORM OF LENALIDOMIDE AND A PROCESS FOR ITS PREPARATION” (GENERICS [UK] LIMITED, priority 2008, published 2011).
Like-named read-outs stand apart in the source and are kept apart here.

Key:
[1] = as disclosed in WO 2005/023192; cited from earlier work
[2] = aqueous solubility of lenalidomide crystalline forms; settings: forms prepared and tested by the inventors
[3] = as indicated in WO 2005/023192; cited from earlier work

Nc1cccc2c1CN(C1CCC(=O)NC1=O)C2=O (stereo not shown) [form E, lenalidomide]
weight loss upon storage [1]: the greatest weight loss upon storage

Nc1cccc2c1CN(C1CCC(=O)NC1=O)C2=O (stereo not shown) [novel crystalline form, 3-(4-amino-1-oxo-1,3-dihydro-isoindol-2-yl)-piperidine-2,6-dione]
aqueous solubility [2]: High solubility in aqueous medium

Nc1cccc2c1CN(C1CCC(=O)NC1=O)C2=O (stereo not shown) [polymorphic mixture, lenalidomide]
aqueous solubility [3]: poorly soluble in water
aqueous solubility [2]: poor aqueous solubility
